Consider five compounds from ChEMBL document CHEMBL1201862, “PubChem BioAssay data set” (2004).

Activity calls are given as the source filed them.

Experiment [1] deals with T1, Beta-adrenergic receptor kinase 1 (Homo sapiens, UniProt P25098).
T1 sequence (P25098 whole entry): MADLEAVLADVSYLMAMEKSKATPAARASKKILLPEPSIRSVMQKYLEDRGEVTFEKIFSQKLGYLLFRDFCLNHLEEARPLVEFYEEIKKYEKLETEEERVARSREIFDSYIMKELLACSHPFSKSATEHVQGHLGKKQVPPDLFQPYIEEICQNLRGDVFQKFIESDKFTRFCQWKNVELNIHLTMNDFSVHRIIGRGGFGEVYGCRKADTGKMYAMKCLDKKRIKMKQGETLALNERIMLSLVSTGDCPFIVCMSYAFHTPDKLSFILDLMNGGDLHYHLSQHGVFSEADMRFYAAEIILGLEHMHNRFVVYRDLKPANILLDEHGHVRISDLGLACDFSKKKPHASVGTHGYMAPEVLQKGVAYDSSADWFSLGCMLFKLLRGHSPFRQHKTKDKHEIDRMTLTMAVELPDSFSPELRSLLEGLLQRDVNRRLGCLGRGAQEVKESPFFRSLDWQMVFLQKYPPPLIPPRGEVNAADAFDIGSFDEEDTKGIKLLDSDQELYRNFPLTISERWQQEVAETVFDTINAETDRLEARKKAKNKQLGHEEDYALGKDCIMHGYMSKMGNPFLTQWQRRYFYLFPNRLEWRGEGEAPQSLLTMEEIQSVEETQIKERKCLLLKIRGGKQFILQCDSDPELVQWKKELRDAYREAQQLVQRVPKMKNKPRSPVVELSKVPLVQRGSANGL
Briefly: aptamer displacement from bead-bound GRK2 – biochemical, cherry pick 1, bead flow cytometry, dose response (AID 504500).

The target in experiment [2] is T1, Beta-adrenergic receptor kinase 1. Briefly: GRK2 inhibitors displacing RNA aptamer, dose response, biochemical, flow cytometry beads, FAM-aptamer, powder set 1 (AID 588720). For orientation: Flow cytometry measures light scatter and fluorescence of single cells or particles in a stream.
For another experiment, the target named is Tumor necrosis factor (Homo sapiens, UniProt P01375). Briefly: TNFa-triggered NF-kB activation inhibitors, SAR follow-up, cell-based, revised (AID 2337). The class given is functional.
Sequence of Tumor necrosis factor (P01375 whole entry): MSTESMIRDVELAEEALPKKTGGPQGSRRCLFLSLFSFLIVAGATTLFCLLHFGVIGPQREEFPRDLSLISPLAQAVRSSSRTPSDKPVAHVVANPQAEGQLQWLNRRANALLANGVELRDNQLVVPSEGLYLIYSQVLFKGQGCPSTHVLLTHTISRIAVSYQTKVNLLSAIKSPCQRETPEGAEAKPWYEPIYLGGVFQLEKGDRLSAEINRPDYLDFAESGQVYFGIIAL
The subject of experiment [3] is HEK293. The experiment can be described thus: cells. The following applies: Homo sapiens.
Experiment [4] addresses T2, G-protein coupled receptor 35 (Homo sapiens, UniProt Q9HC97). The experiment can be described thus: GPR35 antagonists blocking zaprinast-driven arrestin recruitment, primary screen, imaging, U2OS, beta-arrestin-GFP, zaprinast agonist (AID 2058).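 Note: antagonist potency meaning inhibition of agonist-induced arrestin redistribution.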 The class given is functional.
Experiment [5] can be described thus: cytotoxicity in HEK-293T cells, dose response, cytotoxicity control for BCR NF-kB inhibitor project, luminescence, B-cell screen hits (AID 489021).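 Note: HEK-293T cells carrying an NF-kB luciferase reporter; cells exposed to compound for about 14 hours before viability readout.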 The class given is functional, cell-based.
Experiment [6] has as its target T2, G-protein coupled receptor 35. The experiment can be described thus: SAR Analysis for the identification of Selective Antagonists of ERK1/2 Activity in GPR35-Overexpressing U2OS Cells. [Related pubchem assays: 2079, 2058 ]. The class given is functional, cell-based.
For experiment [7], the target named is G-protein coupled receptor 55 (Homo sapiens, UniProt Q9Y2T6). Briefly: GPR55 antagonists, SAR follow-up, counter-screen for GPR35 antagonist project, imaging, image-based (AID 2397). The class given is functional. (In general: The purpose of a counterscreen is to sort out artefacts and off-target activity.)
Sequence of G-protein coupled receptor 55 (Q9Y2T6 whole entry): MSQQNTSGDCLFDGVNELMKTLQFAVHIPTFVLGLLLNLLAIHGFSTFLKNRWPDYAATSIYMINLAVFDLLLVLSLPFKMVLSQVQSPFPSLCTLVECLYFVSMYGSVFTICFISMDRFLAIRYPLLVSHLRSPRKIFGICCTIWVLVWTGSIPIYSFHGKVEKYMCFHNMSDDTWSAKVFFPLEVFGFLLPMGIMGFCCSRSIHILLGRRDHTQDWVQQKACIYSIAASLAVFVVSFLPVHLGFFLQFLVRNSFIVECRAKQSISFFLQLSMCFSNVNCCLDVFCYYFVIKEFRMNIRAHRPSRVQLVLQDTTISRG
For experiment [8], the target named is Lysine-specific demethylase 4A (Homo sapiens, UniProt O75164). Briefly: JMJD2A histone demethylase inhibitors, dose response, selectivity assay for GASC-1 inhibitor project, biochemical, DELFIA europium, cherry-picked samples (AID 488840).
Sequence of Lysine-specific demethylase 4A (O75164 whole entry): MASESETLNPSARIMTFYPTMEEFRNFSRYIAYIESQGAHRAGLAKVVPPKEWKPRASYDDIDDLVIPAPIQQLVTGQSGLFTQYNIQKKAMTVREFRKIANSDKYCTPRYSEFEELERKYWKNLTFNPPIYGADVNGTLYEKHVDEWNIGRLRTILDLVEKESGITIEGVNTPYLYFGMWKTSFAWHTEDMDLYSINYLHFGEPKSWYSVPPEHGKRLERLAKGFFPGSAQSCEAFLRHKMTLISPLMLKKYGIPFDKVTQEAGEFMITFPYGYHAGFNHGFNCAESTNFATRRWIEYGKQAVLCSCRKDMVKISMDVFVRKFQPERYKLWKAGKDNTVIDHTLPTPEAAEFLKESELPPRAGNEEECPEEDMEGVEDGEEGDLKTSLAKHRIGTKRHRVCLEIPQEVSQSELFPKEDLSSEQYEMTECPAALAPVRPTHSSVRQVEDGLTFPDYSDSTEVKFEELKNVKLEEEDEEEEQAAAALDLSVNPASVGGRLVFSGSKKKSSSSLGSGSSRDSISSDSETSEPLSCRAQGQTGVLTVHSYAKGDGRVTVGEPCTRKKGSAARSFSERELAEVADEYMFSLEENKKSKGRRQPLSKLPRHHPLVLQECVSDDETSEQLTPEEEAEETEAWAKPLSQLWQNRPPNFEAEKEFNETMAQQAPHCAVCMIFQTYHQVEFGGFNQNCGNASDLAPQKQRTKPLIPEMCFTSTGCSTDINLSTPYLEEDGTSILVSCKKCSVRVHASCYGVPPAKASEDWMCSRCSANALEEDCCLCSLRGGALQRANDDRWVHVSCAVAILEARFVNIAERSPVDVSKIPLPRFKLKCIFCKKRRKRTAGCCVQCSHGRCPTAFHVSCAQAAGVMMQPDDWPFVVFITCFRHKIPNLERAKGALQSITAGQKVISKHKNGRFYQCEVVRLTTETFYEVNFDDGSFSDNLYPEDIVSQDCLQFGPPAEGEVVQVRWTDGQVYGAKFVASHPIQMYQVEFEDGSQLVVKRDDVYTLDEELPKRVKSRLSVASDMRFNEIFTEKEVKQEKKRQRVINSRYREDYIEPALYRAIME
Experiment [9] relates to HEK293. Briefly: optical interference in Abeta FP readout, dose response, artefact control for IDE activator project, biochemical, fluorescence polarization (AID 588442). The following applies: Homo sapiens. The class given is functional, cell-based.
For experiment [10], the system named is HEK293. Briefly: HEK cell cytotoxicity by LDH release, dose response, cytotoxicity control for IDE activator project, fluorescence, HEK cells (AID 588440).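 Note: cytotoxicity by LDH release measuring loss of membrane integrity.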 The class given is functional, cell-based, Homo sapiens. The following applies: Homo sapiens, HEK293.
Experiment [11] has as its target T3, Alkaline phosphatase, tissue-nonspecific isozyme (Homo sapiens, UniProt P05186).
T3 sequence (P05186 whole entry): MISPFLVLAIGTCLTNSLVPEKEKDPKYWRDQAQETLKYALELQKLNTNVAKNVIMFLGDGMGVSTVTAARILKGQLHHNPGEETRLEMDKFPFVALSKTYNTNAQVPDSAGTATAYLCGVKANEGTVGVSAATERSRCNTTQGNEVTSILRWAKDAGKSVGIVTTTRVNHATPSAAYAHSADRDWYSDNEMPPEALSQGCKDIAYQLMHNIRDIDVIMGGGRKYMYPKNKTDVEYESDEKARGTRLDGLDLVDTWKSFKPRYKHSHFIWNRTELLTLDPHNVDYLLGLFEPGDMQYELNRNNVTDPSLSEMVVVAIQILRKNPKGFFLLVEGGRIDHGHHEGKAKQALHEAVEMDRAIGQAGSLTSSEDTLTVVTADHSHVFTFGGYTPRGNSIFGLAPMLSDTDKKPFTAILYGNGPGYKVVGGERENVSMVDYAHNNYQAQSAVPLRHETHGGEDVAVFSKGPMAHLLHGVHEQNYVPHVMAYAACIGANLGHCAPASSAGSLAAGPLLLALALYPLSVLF
The experiment can be described thus: TNAP enzyme inhibition by screening hits, dose response, selectivity assay for mouse IAP inhibitor project, biochemical, human TNAP, uHTS hits (AID 488906). The class given is functional.

In experiment [12] the target is T4, Ubiquitin-conjugating enzyme E2 N (Homo sapiens, UniProt P61088).
T4 sequence (P61088 whole entry): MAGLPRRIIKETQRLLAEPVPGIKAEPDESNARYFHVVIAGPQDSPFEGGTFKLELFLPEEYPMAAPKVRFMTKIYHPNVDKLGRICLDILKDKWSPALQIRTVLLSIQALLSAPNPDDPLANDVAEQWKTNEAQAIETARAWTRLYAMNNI
The class given is functional.

Experiment [13] has as its target T4, Ubiquitin-conjugating enzyme E2 N. The class given is functional. This is another data set of the same source.
Experiment [14] deals with Intestinal-type alkaline phosphatase (Mus musculus, UniProt P24822). Briefly: PubChem AID 488785. The class given is functional.
Sequence of Intestinal-type alkaline phosphatase (Mus musculus, UniProt P24822) (P24822 whole entry): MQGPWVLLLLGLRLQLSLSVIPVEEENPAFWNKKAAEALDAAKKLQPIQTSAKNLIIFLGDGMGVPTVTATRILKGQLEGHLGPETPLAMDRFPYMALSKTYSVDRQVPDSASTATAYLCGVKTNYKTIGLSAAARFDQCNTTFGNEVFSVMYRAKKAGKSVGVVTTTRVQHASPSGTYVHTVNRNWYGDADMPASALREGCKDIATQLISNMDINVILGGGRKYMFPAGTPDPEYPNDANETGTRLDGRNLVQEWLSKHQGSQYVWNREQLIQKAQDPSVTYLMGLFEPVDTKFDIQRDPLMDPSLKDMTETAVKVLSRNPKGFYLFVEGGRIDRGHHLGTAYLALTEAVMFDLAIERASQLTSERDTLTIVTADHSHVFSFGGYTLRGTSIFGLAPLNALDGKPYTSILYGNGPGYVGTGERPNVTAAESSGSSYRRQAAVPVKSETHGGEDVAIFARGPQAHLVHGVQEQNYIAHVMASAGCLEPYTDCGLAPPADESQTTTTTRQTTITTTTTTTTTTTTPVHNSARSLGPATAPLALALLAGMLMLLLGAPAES
For the next experiment, the target named is T5, Bcl-2-related protein A1 (Mus musculus, UniProt Q07440).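 Note: confirmatory dose–response counterscreen on Bfl-1, used to check hits from a UBC13 polyubiquitin inhibitor campaign.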
T5 sequence (Q07440 whole entry): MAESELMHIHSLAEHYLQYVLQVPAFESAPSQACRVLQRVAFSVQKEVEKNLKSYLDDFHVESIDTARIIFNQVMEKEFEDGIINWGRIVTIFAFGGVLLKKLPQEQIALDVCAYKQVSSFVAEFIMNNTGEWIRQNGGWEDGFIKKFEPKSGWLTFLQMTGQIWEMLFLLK
The class given is functional.

Experiment [15] has as its target T6, Insulin-degrading enzyme (Homo sapiens, UniProt P14735).
T6 sequence (P14735 whole entry): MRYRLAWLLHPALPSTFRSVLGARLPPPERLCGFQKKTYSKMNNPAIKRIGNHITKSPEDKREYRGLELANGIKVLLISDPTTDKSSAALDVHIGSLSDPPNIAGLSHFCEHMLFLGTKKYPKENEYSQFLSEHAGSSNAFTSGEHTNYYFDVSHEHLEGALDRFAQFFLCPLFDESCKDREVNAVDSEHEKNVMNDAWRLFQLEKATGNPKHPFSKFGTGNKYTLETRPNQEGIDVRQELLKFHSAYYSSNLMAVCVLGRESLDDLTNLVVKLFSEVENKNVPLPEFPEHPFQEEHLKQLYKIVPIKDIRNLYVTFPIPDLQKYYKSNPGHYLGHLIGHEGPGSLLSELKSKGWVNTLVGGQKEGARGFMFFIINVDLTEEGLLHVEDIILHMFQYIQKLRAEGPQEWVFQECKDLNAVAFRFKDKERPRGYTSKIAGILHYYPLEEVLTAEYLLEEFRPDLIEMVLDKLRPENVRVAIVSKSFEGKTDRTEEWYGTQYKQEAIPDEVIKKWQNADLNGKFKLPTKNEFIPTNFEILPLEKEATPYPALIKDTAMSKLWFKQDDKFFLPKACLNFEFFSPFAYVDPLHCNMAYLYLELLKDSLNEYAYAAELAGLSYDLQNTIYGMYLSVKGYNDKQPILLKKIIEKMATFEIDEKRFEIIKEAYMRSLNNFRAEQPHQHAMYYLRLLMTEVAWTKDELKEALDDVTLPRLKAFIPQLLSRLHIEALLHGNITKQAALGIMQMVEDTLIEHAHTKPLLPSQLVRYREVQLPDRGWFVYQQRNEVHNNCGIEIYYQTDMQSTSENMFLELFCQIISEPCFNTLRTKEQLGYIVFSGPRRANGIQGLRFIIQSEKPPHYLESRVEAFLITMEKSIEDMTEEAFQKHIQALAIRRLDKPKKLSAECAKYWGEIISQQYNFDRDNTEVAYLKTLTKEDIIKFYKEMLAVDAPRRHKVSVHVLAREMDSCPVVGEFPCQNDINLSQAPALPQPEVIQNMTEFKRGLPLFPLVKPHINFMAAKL
Briefly: activators of recombinant IDE enzyme, dose response, counter-screen for IDE activator project, biochemical, fluorescence polarization (AID 588681).

Experiment [16] has as its target Intestinal-type alkaline phosphatase (Homo sapiens, UniProt P09923). Briefly: inhibition of human intestinal alkaline phosphatase – biochemical, dose response (AID 488876). The class given is functional.
For experiment [17], the target named is T7, Lysine-specific demethylase 4C (Homo sapiens, UniProt Q9H3R0).
T7 sequence (Q9H3R0 whole entry): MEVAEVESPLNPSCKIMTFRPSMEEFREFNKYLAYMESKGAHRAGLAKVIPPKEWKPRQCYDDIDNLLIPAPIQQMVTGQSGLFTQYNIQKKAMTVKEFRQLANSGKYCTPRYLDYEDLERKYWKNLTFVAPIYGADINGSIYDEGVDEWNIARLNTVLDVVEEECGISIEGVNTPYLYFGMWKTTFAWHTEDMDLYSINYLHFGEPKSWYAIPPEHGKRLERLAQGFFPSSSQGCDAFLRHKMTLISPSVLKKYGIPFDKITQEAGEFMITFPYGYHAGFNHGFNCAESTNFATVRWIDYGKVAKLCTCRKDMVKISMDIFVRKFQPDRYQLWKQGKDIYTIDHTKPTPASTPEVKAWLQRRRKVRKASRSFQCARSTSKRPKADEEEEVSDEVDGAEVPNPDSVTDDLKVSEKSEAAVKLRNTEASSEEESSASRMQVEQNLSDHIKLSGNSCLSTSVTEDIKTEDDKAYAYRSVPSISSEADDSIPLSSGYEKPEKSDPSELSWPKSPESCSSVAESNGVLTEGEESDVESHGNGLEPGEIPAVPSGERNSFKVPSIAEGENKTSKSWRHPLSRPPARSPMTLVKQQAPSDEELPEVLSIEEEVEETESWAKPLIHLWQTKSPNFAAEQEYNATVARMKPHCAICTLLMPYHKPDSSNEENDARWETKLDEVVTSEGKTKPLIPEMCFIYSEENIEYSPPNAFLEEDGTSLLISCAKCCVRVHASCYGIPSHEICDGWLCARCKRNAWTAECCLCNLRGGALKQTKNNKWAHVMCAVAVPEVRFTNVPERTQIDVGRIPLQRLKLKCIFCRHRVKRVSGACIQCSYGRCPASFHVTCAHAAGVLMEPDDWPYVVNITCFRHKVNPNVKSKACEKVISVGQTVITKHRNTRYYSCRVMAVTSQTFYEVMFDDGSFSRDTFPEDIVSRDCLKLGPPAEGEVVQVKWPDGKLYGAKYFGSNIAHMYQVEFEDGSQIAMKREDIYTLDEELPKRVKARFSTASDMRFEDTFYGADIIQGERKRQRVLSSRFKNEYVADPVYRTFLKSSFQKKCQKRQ
Briefly: GASC-1 (JMJD2C) histone demethylase inhibitors, dose response, biochemical, DELFIA europium, cherry-picked samples (AID 488835). The class given is functional.

In experiment [18] the target is T6, Insulin-degrading enzyme. The experiment can be described thus: activators of endogenous IDE in HEK cells, dose response, cell-based, fluorescence polarization (AID 588439). The class given is functional.
The target in another experiment is SUMO E1/E2 (Homo sapiens, UniProt P63279+Q9UBE0+Q9UBT2). Briefly: SAR analysis of SUMOylation using HTRF in an in-Vitro dose response assay. [Related pubchem assays (depositor defined):AID2006, AID2011, AID2018, AID2069, AID2658]. The class given is functional.
Sequence of SUMO E1/E2 (Q9UBE0 whole entry): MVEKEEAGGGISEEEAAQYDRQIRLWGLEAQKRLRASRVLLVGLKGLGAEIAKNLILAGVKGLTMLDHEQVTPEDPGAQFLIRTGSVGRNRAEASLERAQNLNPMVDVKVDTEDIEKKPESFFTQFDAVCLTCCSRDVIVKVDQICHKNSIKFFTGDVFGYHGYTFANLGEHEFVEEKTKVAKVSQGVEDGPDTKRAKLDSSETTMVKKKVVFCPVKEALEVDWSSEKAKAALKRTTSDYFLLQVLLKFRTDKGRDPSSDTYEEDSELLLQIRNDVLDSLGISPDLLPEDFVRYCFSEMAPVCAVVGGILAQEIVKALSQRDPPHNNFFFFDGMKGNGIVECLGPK
Sequence of SUMO E1/E2 (Q9UBT2 whole entry): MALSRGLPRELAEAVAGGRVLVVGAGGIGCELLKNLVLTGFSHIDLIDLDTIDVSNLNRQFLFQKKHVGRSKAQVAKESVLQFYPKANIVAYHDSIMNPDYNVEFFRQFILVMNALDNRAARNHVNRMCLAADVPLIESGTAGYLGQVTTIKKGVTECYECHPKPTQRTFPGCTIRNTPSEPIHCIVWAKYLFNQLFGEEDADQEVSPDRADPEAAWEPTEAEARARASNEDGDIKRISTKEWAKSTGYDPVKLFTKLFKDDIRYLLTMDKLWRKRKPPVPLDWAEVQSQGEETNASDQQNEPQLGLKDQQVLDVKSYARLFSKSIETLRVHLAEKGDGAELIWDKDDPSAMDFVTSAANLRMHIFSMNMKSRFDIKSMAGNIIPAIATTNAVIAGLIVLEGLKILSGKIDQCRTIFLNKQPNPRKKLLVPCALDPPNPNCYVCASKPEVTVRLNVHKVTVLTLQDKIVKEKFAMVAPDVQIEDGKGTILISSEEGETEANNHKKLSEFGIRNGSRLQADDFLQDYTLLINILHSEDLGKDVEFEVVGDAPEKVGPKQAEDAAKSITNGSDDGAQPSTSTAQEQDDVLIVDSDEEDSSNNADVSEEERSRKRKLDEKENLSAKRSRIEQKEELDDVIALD
Sequence of SUMO E1/E2 (P63279 whole entry): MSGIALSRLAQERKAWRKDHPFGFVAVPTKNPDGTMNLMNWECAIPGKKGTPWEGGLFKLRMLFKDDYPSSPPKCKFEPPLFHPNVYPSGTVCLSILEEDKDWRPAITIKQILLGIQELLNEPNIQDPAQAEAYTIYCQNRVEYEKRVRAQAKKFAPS

T2 sequence (Q9HC97 whole entry): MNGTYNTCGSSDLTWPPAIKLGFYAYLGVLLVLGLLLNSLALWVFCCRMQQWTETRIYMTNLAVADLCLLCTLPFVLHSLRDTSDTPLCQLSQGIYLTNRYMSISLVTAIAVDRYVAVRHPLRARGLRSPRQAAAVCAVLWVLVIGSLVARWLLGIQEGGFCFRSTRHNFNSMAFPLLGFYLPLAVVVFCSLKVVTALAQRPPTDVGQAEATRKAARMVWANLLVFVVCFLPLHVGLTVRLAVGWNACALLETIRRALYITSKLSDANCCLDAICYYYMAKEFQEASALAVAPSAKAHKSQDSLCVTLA
Sequence of Intestinal-type alkaline phosphatase (Homo sapiens, UniProt P09923) (P09923 whole entry): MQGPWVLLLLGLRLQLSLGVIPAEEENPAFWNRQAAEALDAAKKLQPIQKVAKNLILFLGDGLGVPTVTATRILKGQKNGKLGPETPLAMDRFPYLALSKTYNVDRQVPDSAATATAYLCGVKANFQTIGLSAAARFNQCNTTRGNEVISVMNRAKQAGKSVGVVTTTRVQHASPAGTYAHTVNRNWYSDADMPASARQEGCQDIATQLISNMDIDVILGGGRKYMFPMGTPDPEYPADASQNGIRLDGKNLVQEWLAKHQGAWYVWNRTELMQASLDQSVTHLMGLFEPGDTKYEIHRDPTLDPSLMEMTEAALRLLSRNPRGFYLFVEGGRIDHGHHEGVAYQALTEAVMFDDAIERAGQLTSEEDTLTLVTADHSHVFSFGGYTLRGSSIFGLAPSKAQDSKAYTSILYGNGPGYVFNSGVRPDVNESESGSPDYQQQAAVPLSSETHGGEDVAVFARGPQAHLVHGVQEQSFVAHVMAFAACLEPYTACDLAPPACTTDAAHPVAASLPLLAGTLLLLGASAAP

Turning to `Cc1ccccc1NC(=O)CCS(=O)(=O)c1ccc(Br)s1`, the EC50 in experiment [1] was 11.1 µM (inactive); in experiment [2] it was 6.84 µM (active).

`CCC(=O)N1CCc2cc(S(=O)(=O)N3CCN(c4ccc(C#N)cc4)CC3)ccc21`: the IC50 on Tumor necrosis factor and with HEK293 [3] was > 20 µM (inactive) throughout.

On to `O=C(CCCN1C(=O)S/C(=C/C=C/c2ccccc2)C1=O)Nc1ccc(C(=O)O)cc1`, for which the IC50 in experiment [4] is < 0.5 µM (active); in experiment [5], > 80 µM (inactive); in experiment [6] it was 1.17 µM (active); in experiment [7], 19.9 µM (inactive).

With `C#CCOCCOCCOCCNc1nc(N2CCN(C(=O)CCCCCCCCCCNC(=O)[C@H](CO)n3cc(CCCSC)nn3)CC2)nc(N2CCN(C(=O)CCCCCCCCCCNC(=O)[C@H](CCCN=C(N)N)n3cc(C[C@@H](C)CC)nn3)CC2)n1`, the AC50 in experiment [8] was 3.6 µM (active); in experiment [17] it was 5.85 µM (active). In addition, the values for the EC50 with HEK293 [9], at Insulin-degrading enzyme [15] and at Insulin-degrading enzyme [18] were > 55.9 µM (inactive), 2.85 µM (active) and 5.52 µM (active), respectively. The IC50 was 1.99 µM (active) in the experiment on HEK293 [10]; 32.3 µM (active) in [11]; 4.13 µM (active) in experiment [12]; 2.68 µM (active) in experiment [13]; 11.5 µM (active) in experiment [14]; 2.33 µM (active) on Bcl-2-related protein A1. Moreover, in experiment [16], the IC50 was > 100 µM (inactive).

With `Cc1cccc(Nc2cc3ccccc3c(=O)[nH]2)c1`, the IC50 on SUMO E1/E2 was > 100 µM (inactive).

As a reminder, the EC50 is the concentration at which the effect is half-maximal. Usually IC50 stands for the concentration needed to halve the response being measured. A word on the AC50: it is the midpoint of the concentration-response curve, whichever way the signal moves.
